Laboratory results from PubChem BioAssay AID328 (DTP/NCI, 2004).
Values joined by “and” are separate entries in the source; they are usually repeats but may differ in a detail not shown here. Equal entries are not always repeated. Toxic doses and inconclusive results are not listed. Rule for the calls: active = survival T/C of 150% or more; inactive = T/C below 125% in these data.

System: BDF1 mice, P388 leukemia ip, median survival T/C
Test: NCI In Vivo Anticancer Drug Screen. Data for tumor model P388 Leukemia (intraperitoneal) in B6D2F1 (BDF1) mice
Details: endpoint: median survival time, higher = longer survival
Procedure, shortened: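 T/C = treated-group survival ÷ vehicle-control survival; tumour transplanted into mice before dosing.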

[1] = dose: 100.0 mg/kg/injection, schedule: Q01DX009 (ip), vehicle: Klucel (hydroxypropylcellulose) (HPC)
[2] = dose: 100.0 mg/kg/injection, schedule: Q04DX003 (ip), vehicle: Klucel (hydroxypropylcellulose) (HPC)
[3] = dose: 200.0 mg/kg/injection, schedule: Q01DX009 (ip), vehicle: Klucel (hydroxypropylcellulose) (HPC)
[4] = dose: 200.0 mg/kg/injection, schedule: Q04DX003 (ip), vehicle: Klucel (hydroxypropylcellulose) (HPC)
[5] = dose: 400.0 mg/kg/injection, schedule: Q04DX003 (ip), vehicle: Klucel (hydroxypropylcellulose) (HPC)
[6] = dose: 50.0 mg/kg/injection, schedule: Q01DX009 (ip), vehicle: saline with Tween-80
[7] = dose: 100.0 mg/kg/injection, schedule: Q01DX009 (ip), vehicle: saline with Tween-80
[8] = dose: 100.0 mg/kg/injection, schedule: Q04DX003 (ip), vehicle: saline with Tween-80
[9] = dose: 200.0 mg/kg/injection, schedule: Q01DX009 (ip), vehicle: saline with Tween-80
[10] = dose: 200.0 mg/kg/injection, schedule: Q04DX003 (ip), vehicle: saline with Tween-80
[11] = dose: 12.5 mg/kg/injection, schedule: Q01DX009 (ip), vehicle: saline with Tween-80
[12] = dose: 12.5 mg/kg/injection, schedule: Q01DX009 (ip), vehicle: water
[13] = dose: 25.0 mg/kg/injection, schedule: Q01DX009 (ip), vehicle: saline with Tween-80
[14] = dose: 25.0 mg/kg/injection, schedule: Q01DX009 (ip), vehicle: saline
[15] = dose: 25.0 mg/kg/injection, schedule: Q04DX003 (ip), vehicle: saline with Tween-80
[16] = dose: 50.0 mg/kg/injection, schedule: Q04DX003 (ip), vehicle: saline with Tween-80
[17] = dose: 400.0 mg/kg/injection, schedule: Q01DX009 (ip), vehicle: saline with Tween-80
[18] = dose: 400.0 mg/kg/injection, schedule: Q04DX003 (ip), vehicle: saline with Tween-80
[19] = dose: 100.0 mg/kg/injection, schedule: Q04DX003 (ip), vehicle: saline
[20] = dose: 200.0 mg/kg/injection, schedule: Q04DX003 (ip), vehicle: saline
[21] = dose: 12.5 mg/kg/injection, schedule: Q04DX003 (ip), vehicle: saline with Tween-80
[22] = dose: 6.25 mg/kg/injection, schedule: Q01DX009 (ip), vehicle: saline with Tween-80
[23] = dose: 400.0 mg/kg/injection, schedule: Q04DX003 (ip), vehicle: saline

Measured: T/C

Cc1ccc(S(=O)(=O)N(CC(=O)O)c2cccc(Cl)c2)cc1
inactive: [1] 100 % of control | [2] 100 % of control | [3] 100 % of control | [4] 104 % of control | dose: 400.0 mg/kg/injection, schedule: Q01DX009 (ip), vehicle: Klucel (hydroxypropylcellulose) (HPC) 104 % of control | [5] 100 % of control

O=c1[nH]cc(Br)c2sccc12
inactive: dose: 150.0 mg/kg/injection, schedule: Q01DX009 (ip), vehicle: saline 90 % of control | dose: 225.0 mg/kg/injection, schedule: Q01DX009 (ip), vehicle: saline 86 % of control

CCCCC(C)(O)CC (centres undefined)
inactive: [6] 109 % of control | [7] 118 % of control | [8] 104 % of control | [9] 100 % of control | [10] 104 % of control

CC(C)(Br)C(=O)c1ccc([N+](=O)[O-])o1
inactive: dose: 0.78 mg/kg/injection, schedule: Q01DX009 (ip), vehicle: water 95 % of control | dose: 1.56 mg/kg/injection, schedule: Q01DX009 (ip), vehicle: water 89 % of control | dose: 3.12 mg/kg/injection, schedule: Q01DX009 (ip), vehicle: saline 116 % of control | dose: 3.12 mg/kg/injection, schedule: Q01DX009 (ip), vehicle: water 87 % of control | dose: 6.25 mg/kg/injection, schedule: Q01DX009 (ip), vehicle: saline 123 % of control | dose: 6.25 mg/kg/injection, schedule: Q01DX009 (ip), vehicle: water 105 % of control | [11] 95 % of control | [12] 104 % of control | [13] 100 % of control | [14] 116 % of control | [15] 107 % of control | [6] 95 % of control | [16] 109 % of control | [7] 87 % of control | [8] 100 % of control

CN(C)P(N)(N)=O
inactive: [2] 100 % of control | [4] 100 % of control | [5] 95 % of control

OC(CCl)COCC#Cc1ccccc1 (centres undefined)
inactive: [15] 105 % of control | [16] 100 % of control | [7] 95 % of control | [8] 115 % of control | [9] 112 % of control | [10] 95 % of control | [17] 116 % of control | [18] 95 % of control

COC(=O)C(CSCSC)NC(=O)/C=C/c1ccc(C)cc1 (centres undefined)
inactive: [6] 109 % of control | [7] 109 % of control | [8] 91 % of control | [9] 92 % of control | [10] 91 % of control | [17] 100 % of control | [18] 88 % of control

N/C(=N/O)c1[nH]cnc1N
inactive: [12] 101 % of control | dose: 25.0 mg/kg/injection, schedule: Q01DX009 (ip), vehicle: water 97 % of control | dose: 50.0 mg/kg/injection, schedule: Q01DX009 (ip), vehicle: water 103 % of control | dose: 100.0 mg/kg/injection, schedule: Q01DX009 (ip), vehicle: water 103 % of control

CCOC(=O)c1cnc(C)[nH]c1=O
inactive: [14] 113 % of control | dose: 50.0 mg/kg/injection, schedule: Q01DX009 (ip), vehicle: saline 118 % of control | dose: 50.0 mg/kg/injection, schedule: Q04DX003 (ip), vehicle: saline 100 % of control | dose: 100.0 mg/kg/injection, schedule: Q01DX009 (ip), vehicle: saline 100 % of control | [19] 104 % of control | [20] 86 % of control

O=[N+]([O-])c1ccc(N2CCN(c3ccccc3)CC2)c2c1no[n+]2[O-]
inactive: dose: 75.0 mg/kg/injection, schedule: Q04DX003 (ip), vehicle: saline with Tween-80 108 % of control | dose: 150.0 mg/kg/injection, schedule: Q04DX003 (ip), vehicle: saline with Tween-80 111 % of control

CNC1(c2ccccc2)C(=O)CC2CCC1C2 (centres undefined)
inactive: dose: 25.0 mg/kg/injection, schedule: Q01DX001 (ip), vehicle: Klucel (hydroxypropylcellulose) (HPC) 105 % of control | dose: 50.0 mg/kg/injection, schedule: Q01DX001 (ip), vehicle: Klucel (hydroxypropylcellulose) (HPC) 105 % of control | dose: 100.0 mg/kg/injection, schedule: Q01DX001 (ip), vehicle: Klucel (hydroxypropylcellulose) (HPC) 100 % of control

O=C(/C=N/O)c1cccnc1
inactive: dose: 25.0 mg/kg/injection, schedule: Q04DX003 (ip), vehicle: saline sonified 100 % of control | dose: 50.0 mg/kg/injection, schedule: Q04DX003 (ip), vehicle: saline sonified 95 % of control | dose: 100.0 mg/kg/injection, schedule: Q04DX003 (ip), vehicle: saline sonified 100 % of control

CC1=C(C)Cc2c(c(OC(=O)c3ccccc3)cc(Cl)c2OC(=O)c2ccccc2)C1
inactive: [21] 94 % of control | [15] 94 % of control | [16] 92 % of control | [8] 90 % of control | [10] 93 % of control | [18] 94 % of control

CCCCCCCCCCC(C)c1ccc(S(=O)(=O)O)cc1 (centres undefined)
inactive: [11] 103 % of control | [13] 110 % of control | dose: 33.0 mg/kg/injection, schedule: Q01DX009 (ip), vehicle: saline with Tween-80 120 % of control | [6] 115 % of control and 116 % of control and 118 % of control | dose: 75.0 mg/kg/injection, schedule: Q01DX009 (ip), vehicle: saline with Tween-80 110 % of control | [7] 119 % of control

O=C1c2cscc2C(=O)c2c(Cl)sc(Cl)c21
inactive: [22] 101 % of control | [11] 108 % of control | [13] 101 % of control

COC(=O)CC1C(=O)C(C)(C(=O)OC)CCC1c1ccc(OC)cc1 (centres undefined)
inactive: [19] 109 % of control | [20] 109 % of control | [23] 104 % of control

CN(Cc1ccccc1)/N=N/c1nc[nH]c1C(N)=O
inactive: dose: 25.0 mg/kg/injection, schedule: Q01DX009 (ip), vehicle: Klucel (hydroxypropylcellulose) (HPC) 95 % of control | dose: 50.0 mg/kg/injection, schedule: Q01DX009 (ip), vehicle: Klucel (hydroxypropylcellulose) (HPC) 110 % of control | [1] 110 % of control | [3] 100 % of control

S=c1nc[nH]c2ccccc12
inactive: [2] 109 % of control | [4] 122 % of control | [5] 109 % of control

COc1cc(/C=N/n2cnnc2)cc(OC)c1OC
inactive: [19] 100 % of control | [20] 100 % of control | [23] 109 % of control

CC(C)=NNS(=O)(=O)c1ccccc1
inactive: [16] 95 % of control | [8] 90 % of control | [10] 95 % of control

CC(=O)CC(C)=O.CC(=O)CC(C)=O.[Co]
inactive: [22] 96 % of control | dose: 6.25 mg/kg/injection, schedule: Q04DX003 (ip), vehicle: saline with Tween-80 88 % of control | [11] 112 % of control | [21] 92 % of control | [13] 120 % of control | [15] 92 % of control

C=C(C)Cc1cnc(SCc2ccccc2)[nH]c1=O
inactive: [2] 104 % of control | [4] 109 % of control | [5] 113 % of control
